According to US20230063794A1, “STAPLED TRIAZOLE CO-AGONISTS OF THE GLUCAGON AND GLP-1 RECEPTORS” (Merck Sharp & Dohme LLC, priority 2019, published 2023):
Starred links: 1 amine or outer side, 2 acyl side, 3 side chain; linkers in the order of their positions; H or OH if unused. Positions of bridges follow the written chain, without caps; N, C: chain ends. Non-standard residues stand in square brackets, D forms with d. Residues, ends and D or L forms follow the SMILES beside them. Groups on a side chain read outwards from the residue. Triazole bridges read from a SMILES are 1,4-linked. *: point of attachment. Lys(N3) = [N-]=[N+]=NCCCC[C@H](N)C(=O)O; γGlu = O=C(O)[C@H](CCC(=O)[*:2])N[*:1]; Met(O2) = CS(=O)(=O)CC[C@H](N)C(=O)O; Palmitoyl = CCCCCCCCCCCCCCCC(=O)*; dPra = C#CC[C@@H](N)C(=O)O; Aib = CC(C)(N)C(=O)O

What follows are compounds tested against T1, human GCGR (Homo sapiens, UniProt P47871) (assay: cAMP activity assay in cells expressing human GCGR). Conditions: ratio of human GCGR EC50 to human GLP1R EC50.
T1 construct: expressed in transfected cells; grown under Blasticidin and Hygromycin selection
Format: cell-based
Protocol: Activity of the peptides at the Glucagon receptor (GCGR) and GLP-1 receptor (GLP1R) was measured in a cAMP activity assay.
Peptides were dissolved in 100% DMSO and serially diluted to generate 10 point titrations. The peptide solutions were then transferred into 384-well assay plates (150 nL/well). Assay ready frozen cells expressing human GLP1R or human GCGR were suspended in growth media consisting of DMEM medium (GIBCO), 10% FBS (GIBCO), 1× NEAA(GIBCO), 1× P/S (GIBCO), 10 ug/ml Blasticidin (GIBCO) and 200 μg/mL Hygromycin (GIBCO). Cells were then diluted in assay buffer consisting of PBS (GIBCO), 7.5% BSA (Perkin Elmer), 100 μM RO 20-1724 (Sigma), with or without 20% human serum (MP Biomedical). The cell suspensions (15 μL) were then added to the assay plates containing the peptide solutions (30,000 cells/well for human GCGR; 10,000 cells/well for human GLP1R). The cells were incubated for 1 hour at room temperature in the dark. Production of cAMP was determined using HitHunter™ cAMPXS kits (DiscoverX) following manufacturer protocol. The plates were incubated for overnight at room temperature in the dark. Luminescence was measured using an EnVision Multilabel plate reader (Perkin Elmer). Native GLP-1 and Glucagon (Bachem) are used as control peptides. EC50 values were calculated using uses a 4 parameter logistic fit based on the Levenberg-Marquardt algorithm.

T1 sequence (P47871 26-477): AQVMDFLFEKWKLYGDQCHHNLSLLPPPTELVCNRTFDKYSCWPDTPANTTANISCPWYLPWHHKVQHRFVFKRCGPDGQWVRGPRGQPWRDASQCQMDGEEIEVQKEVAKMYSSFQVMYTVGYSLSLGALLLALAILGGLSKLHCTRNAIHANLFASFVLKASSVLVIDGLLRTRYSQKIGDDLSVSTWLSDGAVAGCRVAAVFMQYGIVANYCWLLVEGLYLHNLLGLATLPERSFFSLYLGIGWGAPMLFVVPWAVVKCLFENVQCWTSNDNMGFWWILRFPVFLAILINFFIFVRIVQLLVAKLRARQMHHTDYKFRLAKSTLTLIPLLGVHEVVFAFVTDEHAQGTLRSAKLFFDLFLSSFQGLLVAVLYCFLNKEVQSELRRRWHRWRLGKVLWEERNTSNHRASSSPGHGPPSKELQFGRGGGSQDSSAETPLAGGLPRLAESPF

hGCGR/hGLP1R (hTone)	Structure (SMILES)
1.92	CC(C)C[C@H](NC(=O)[C@H](Cc1ccc(O)cc1)NC(=O)[C@H](CCCCN)NC(=O)[C@H](CO)NC(=O)[C@H](CCCCN)NC(=O)[C@H](CC(=O)O)NC(=O)[C@H](CO)NC(=O)[C@@H](NC(=O)[C@H](Cc1ccccc1)NC(=O)[C@@H](NC(=O)CNC(=O)[C@H](CCC(N)=O)NC(=O)[C@@H](CO)NC(=O)[C@@H](N)Cc1c[nH]cn1)[C@@H](C)O)[C@@H](C)O)C(=O)N[C@@H](CC(=O)O)C(=O)N[C@@H](CCC(=O)O)C(=O)N[C@@H](CCCNC(=N)N)C(=O)N[C@@H](C)C(=O)N[C@@H](C)C(=O)N[C@@H]1Cc2cn(nn2)CCCC[C@@H](C(=O)N[C@@H](Cc2c[nH]c3ccccc23)C(=O)N[C@@H](CC(C)C)C(=O)N[C@@H](CC(C)C)C(=O)N[C@@H](CC(=O)O)C(=O)N[C@H](C(N)=O)[C@@H](C)O)NC(=O)[C@H](C(C)C)NC(=O)[C@H](Cc2ccccc2)NC(=O)[C@H](CC(=O)O)NC1=O [compound 9] (H-H[dS]QGTFTSDKSKYLDERAA[dPra]DFV[Lys(N3)]WLLDT-NH2; triazole 20-24)
0.4	CCCCCCCCCCCCCCCC(=O)N[C@@H](CCC(=O)N[C@@H](CCC(=O)NCCCC[C@H](NC(=O)[C@H](CC(=O)O)NC(=O)[C@H](CO)NC(=O)[C@@H](NC(=O)[C@H](Cc1ccccc1)NC(=O)[C@@H](NC(=O)CNC(=O)[C@H](CCC(N)=O)NC(=O)[C@@H](CO)NC(=O)[C@@H](N)Cc1c[nH]cn1)[C@@H](C)O)[C@@H](C)O)C(=O)N[C@@H](CO)C(=O)N[C@@H](CCCCN)C(=O)N[C@@H](Cc1ccc(O)cc1)C(=O)N[C@@H](CC(C)C)C(=O)N[C@@H](CC(=O)O)C(=O)N[C@@H](C)C(=O)N[C@@H](CCCNC(=N)N)C(=O)N[C@@H](C)C(=O)N[C@@H](C)C(=O)N[C@@H]1Cc2cn(nn2)CCCC[C@@H](C(=O)N[C@@H](Cc2c[nH]c3ccccc23)C(=O)N[C@@H](CC(C)C)C(=O)N[C@@H](CC(C)C)C(=O)N[C@@H](CC(=O)O)C(=O)N[C@H](C(N)=O)[C@@H](C)O)NC(=O)[C@H](C(C)C)NC(=O)[C@H](Cc2ccccc2)NC(=O)[C@H](CC(=O)O)NC1=O)C(=O)O)C(=O)O [compound 13] (H-H[dS]QGTFTSDK([γGlu-γGlu-Palmitoyl])SKYLDARAA[dPra]DFV[Lys(N3)]WLLDT-NH2; triazole 20-24)
4.5	CCCCCCCCCCCCCCCC(=O)N[C@@H](CCC(=O)N[C@@H](CCC(=O)NCCCC[C@H](NC(=O)[C@H](CC(=O)O)NC(=O)[C@H](CO)NC(=O)[C@@H](NC(=O)[C@H](Cc1ccccc1)NC(=O)[C@@H](NC(=O)CNC(=O)[C@H](CCC(N)=O)NC(=O)C(C)(C)NC(=O)[C@@H](N)Cc1c[nH]cn1)[C@@H](C)O)[C@@H](C)O)C(=O)N[C@@H](CO)C(=O)N[C@@H](CCCCN)C(=O)N[C@@H](Cc1ccc(O)cc1)C(=O)N[C@@H](CC(C)C)C(=O)N[C@@H](CC(=O)O)C(=O)NC(C)(C)C(=O)N[C@@H](CCCNC(=N)N)C(=O)N[C@@H](C)C(=O)N[C@@H](C)C(=O)N[C@@H]1Cc2cn(nn2)CCCC[C@@H](C(=O)N[C@@H](Cc2c[nH]c3ccccc23)C(=O)N[C@@H](CC(C)C)C(=O)N[C@@H](CCS(C)(=O)=O)C(=O)N[C@@H](CC(=O)O)C(=O)N[C@H](C(=O)N[C@@H](CCCCN)C(=O)N[C@@H](CCC(N)=O)C(=O)O)[C@@H](C)O)NC(=O)[C@H](C(C)C)NC(=O)[C@H](Cc2ccccc2)NC(=O)[C@H](CC(=O)O)NC1=O)C(=O)O)C(=O)O [compound 21] (H-H[Aib]QGTFTSDK([γGlu-γGlu-Palmitoyl])SKYLD[Aib]RAA[dPra]DFV[Lys(N3)]WL[Met(O2)]DTKQ-OH; triazole 20-24)
